Results from US20250195551A1 (L4 BIO LLC, priority 2023, published 2025).
Entries after “also recorded” stand apart in the source; their conditions may differ.

System: pentylenetetrazol (PTZ)-induced ictal brain activity
Assay: Modulation of pentylenetetrazol (PTZ)-induced seizures, BOLD fMRI in rats
Assay type: in vivo
Settings: 3 mg/kg, positive control; anesthetized male Wistar rats
Experimental: Functional MRI (fMRI) was performed using a high-field preclinical MRI system in anesthetized male Wistar rats in order to determine the modulation of pentylenetetrazol (PTZ)-induced ictal brain activity by chronic treatment with test compound (TC). Animals treated with vehicle and 3 mg/kg Alprazolam served as controls. A schematic of the study design can be seen in FIG. 6. […] Various physiological parameters were also measured throughout the experiment including body weight, CO2 levels, blood pH, and heart rate.

## Cc1nnc2n1-c1ccc(Cl)cc1C(c1ccccc1)=NC2 [Alprazolam]
  PTZ-induced ictal brain activity (BOLD fMRI area under the curve) vs vehicle: effectively cancelled PTZ-induced brain activity; also recorded: Vehicle vs. Alprazolam in all
